We go through eleven compounds from US12018011B2, “Macrocyclic compounds and compositions, and methods of preparing and using the same” (Kura Oncology, Inc., priority 2021, dated 2024).

Each structure is given as a SMILES string. Some results are limits rather than exact numbers.

Usually IC50 stands for the point on the concentration scale where inhibition reaches its midpoint.

Data set [1] concerns the target T1, Recombinant human farnesyl transferase (FTase) (Homo sapiens, UniProt P49356).
T1 construct: purchased Crelux (Martinsried, Germany)
The experiment in a line: FTase fluorescence assay (farnesylation of dansyl-GCVLS peptide). The format is biochemical. The following applies: recombinant human FTase 2.5 nM, Dansyl-GCVLS 85 nM, FPP 30 nM, 30° C., 50 minutes.

Another data set concerns T24/83 cells. The experiment in a line: T24/83 cell proliferation assay (CellTiter-Glo). Type of data set: cell-based. Particulars: Homo sapiens, 96 h, 4 days. An excerpt: (§1) T24/83 cell line was purchased from the European Collection of Authenticated Cell Cultures (Salisbury, UK). Recombinant human farnesyl transferase (FTase) and geranylgeranyl transferase type-1 (GGTase) were obtained from Crelux (Martinsried, Germany). Dansyl labelled GCVLS peptide was purchased from Bachem (Torrance, CA), and Dansyl labelled GCVLL peptide was purchased from Bio Synthesis (Lewisville, TX). Farnesyl Pyrophosphate (FPP) and Geranylgeranyl pyrophosphate (GGPP) were purchased from Cayman (Ann Arbor, MI).
Mutant oncogenic HRAS was originally identified in a human bladder carcinoma cell line called T24. T24/83 is a subline of T24 established more recently that has more favorable growth characteristics for in vitro assays. Thus, T24/83 is a well-characterized mutant HRAS-dependent cell line that is an ideal model for quantifying the HRAS-dependent antitumor activity of farnesyltransferase inhibitors.
T24/83 cells were inoculated into 384 well plates at 100 cells/well, and grown in the presence of inhibitor, 0.7% DMSO as a negative control, or 100 μM tipifarnib as a positive control, at 37° C. for 4 days. Cell viability was assessed using the CellTiter-Glo Kit (CTG) (Promega; Madison, WI). Luminescence was recorded using EnVision microplate reader (PerkinElmer; Waltham, MA). In this assay, tipifarmib was used as a positive control. All the assay plates passed the QC criteria (S/B, Z-factor).
A general note: Cellular ATP, detected with luciferase, serves as a proxy for viable cell number.

Data set [2] concerns the target T2, geranylgeranyl transferase type-1 (GGTase) (Homo sapiens, UniProt P53609).
T2 construct: purchased Crelux (Martinsried, Germany)
The experiment in a line: GGTase fluorescence assay (dansyl-GCVLL peptide, GGPP). Type of data set: biochemical. Particulars: GGTase 25 nM, Dansyl-GCVLL 10 μM, GGPP 10 μM, 30° C., 120 minutes.
Text: as §1
Geranylgeranyl transferase (GGTase) is a closely related enzyme to farnesyl transferase (FTase). The two enzymes share a common regulatory chain but have distinct individual enzymatic domains. GGTase catalyses the addition of an alternative prenylated side chain to some of the same proteins that may also be farnesylated. Thus, selective inhibitory activity against FTase relative to GGTase is a critical characteristic for FTase inhibitors.
The IC50 value of the compounds disclosed herein as inhibitors of Ftase and/or GGTase, was determined by measuring the concentration (provided in nM) necessary to achieve inhibition of enzyme activity by 50% (IC50). […] Compounds having a low IC50 value against FTase, for example an IC50 (FTase)<100 nM, such as an IC50 (FTase)<10 nM, are preferred. Compounds having a low IC50 value against FTase and a high IC50 value against GGTase, for example an IC50 (FTase)<100 nM, such as an IC50 (FTase)<10 nM, and an IC50 (GGTase)>100 nM, are potent and selective inhibitors of FTase, and are particularly preferred.
The inhibition activities of the compounds disclosed herein against Ftase and GGTase were measured in the respective fluorescence assays as follows:
For the GGTase assay, GGTase (25 nM), Dansyl labelled GCVLL peptide (10 μM), GGPP (10 μM) and inhibitor were mixed in assay buffer (50 mM Tris, pH 7.5, 10 mM magnesium chloride, 10 μM zinc chloride, 0.08% CHAPS, 5 mM dithiothreitol) and incubated in a total volume of 20 μL at 30° C. for 120 minutes.
For both the FTase assay and GGTase assay, fluorescence intensity was detected (excitation at 340 nm and emission at 486 nm) using EnVision (PerkinElmer; Waltham, MA), IC50 determinations were performed using a sigmoidal dose-response model with Xlfit software (IDBS, Inc.; Boston, MA), and tipifarnib was used as a positive control. All the assay plates for each assay passed the QC criteria (S/B, Z factor).

The nature of data set [3]: Metabolic stability in human liver microsomes. The format is in vitro ADME. Particulars: human liver microsomes 0.5 mg protein/mL, test compound 1 μM, 37° C.; read-out: T1/2 in HLM. The protocol:
(§2) The metabolic stability of the compounds disclosed herein was determined by measuring half-life (T1/2) of the compounds in the presence of mouse liver microsomes (MLM) or human liver microsomes (BILM).
(§3) Intermediate solution: 5 μL of compound and control stock solution (10 mM in dimethyl sulfoxide (DMSO)) were diluted with 495 μL of acetonitrile (ACN) (intermediate solution concentration: 100 μM, 99% ACN).
(§4) Working solution: 50 μL of compound and control intermediate solution (100 μM) were diluted with 450 μL of 100 mM potassium phosphate buffer (working solution concentration: 10 μM, 9.9% ACN).
(§5) Controls used in this assay: Testosterone, Diclofenac, and Propafenone.
(§6) Preparation Procedure: The appropriate amount of NADPH powder was weighed and diluted into a 10 mM MgCl2 solution (working solution concentration: 10 unit/mL; final concentration in reaction system: 1 unit/mL).
(§7) The appropriate concentrations of microsome working solutions were prepared in 100 mM potassium phosphate buffer.
(§8) Cold (4° C.) acetonitrile (CAN) containing 200 ng/mL tolbutamide and 200 ng/mL labetalol as internal standards (IS) was used as the stop solution.
(§9) Using an Apricot automation workstation, 10 μL/well of compound working solution were added to all 96-well reaction plates except the blank (T0, T5, T10, T20, T30, T60, and NCF60).
(§10) An Apricot automation workstation was used to add 80 μL/well of microsome solution to all reaction plates (Blank, T0, T5, T10, T20, T30, T60, and NCF60).
(§11) All reaction plates containing mixtures of compound and microsomes were pre-incubated at 37° C. for 10 minutes.
(§12) An Apricot automation workstation was used to add 10 μL/well of 100 mM potassium phosphate buffer to reaction plate NCF60.
(§13) Reaction plate NCF60 was incubated at 37° C. for 60 minutes.
(§14) After pre-incubation, an Apricot automation workstation was used to add 10 μL/well of NADPH regenerating system to every reaction plate except NCF60 (Blank, T0, T5, T10, T20, T30, and T60) to start the reaction. Final concentration of each component in incubation medium: Microsome (0.5 mg protein/mL); Test Compound (1 μM); Control Compound (1 μM); Acetonitrile (0.99%); DMSO (0.01%).
(§15) The reaction plates were incubated at 37° C. for 0 minute (T0, stop solution was added prior to microsome and NADPH solutions), 5 minutes (T5), 10 minutes (T10), 20 minutes (T20), 30 minutes (T30), 60 minutes (T60).
(§16) An Apricot automation workstation was used to add 300 μL/well of stop solution to each reaction plate at its appropriate end time point to terminate the reaction.
(§17) Each plate was sealed and shaken for 10 minutes.
(§18) After shaking, each plate was centrifuged at 4000 rpm and 4° C. for 20 minutes.
(§19) During centrifugation, an Apricot automation workstation was used to add 300 µL/well of HPLC grade water to eight new 96-well plates.
(§20) After centrifugation, an Apricot automation workstation was used to transfer 100 μL of supernatant from each reaction plate to its corresponding bioanaylsis plate.
(§21) Each bioanalysis plate was sealed and shaken for 10 minutes prior to LC-MS/MS analysis.
(§22) The equation of first order kinetics was used to calculate T1/2 and CLint(mic) (μL/min/mg).
In general terms: Liver microsomes are a subcellular fraction often used to study metabolism.

Data set [4] can be described thus: Metabolic stability in mouse liver microsomes. Type of data set: in vitro ADME. The following applies: CD-1 mouse liver microsomes 0.5 mg protein/mL, test compound 1 μM, 37° C.; read-out: T1/2 in MLM. The protocol: as §2, §3, §4, §5, §6, §7, §8, §9, §10, §11, §12, §13, §14, §15, §16, §17, §18, §19, §20, §21, §22

As for `Cn1cncc1[C@@]1(N)c2ccc(C#N)c(c2)CCc2cccc(c2)-c2cc(C#N)nc3ccc1cc23` [(R)-9, (R)-3-amino-3-(1-methyl-1H-imidazol-5-yl)-2(4,6)-quinolina-1,4(1,3)-dibenzenacyclohexaphane-2^2 4^4-dicarbonitrile], the IC50 in data set [1] is at most 10 nM; in the data set on T24/83 cells, at most 50 nM; in data set [2] it was 100 to 1000 nM.
The matching figures for `Cn1cncc1[C@@]1(N)c2ccc(C#N)c(c2)OCc2cccc(c2)-c2cc(C#N)nc3ccc1cc23` [(S)-21, (S)-3-amino-3-(1-methyl-1H-imidazol-5-yl)-5-oxa-2(4,6)-quinolina-1,4(1,3)-dibenzenacyclohexaphane-2^2 4^4-dicarbonitrile]: at most 10 nM, at most 50 nM and 100 to 1000 nM.
On to `Cn1cncc1[C@@]1(O)c2ccc(Cl)c(c2)OCCc2cccc(c2)-c2cc(=O)n(C3CC3)c3ccc1cc23` [(S)-29, (S)-4^4-chloro-2^1-cyclopropyl-3-hydroxy-3-(1-methyl-1H-imidazol-5-yl)-2^1,2^2-dihydro-5-oxa-2(4,6)-quinolina-1,4(1,3)-dibenzenacycloheptaphan-2^2-one], for which the IC50 in data set [1] was at most 10 nM; with T24/83 cells it was 50 to 500 nM. Further, the half-life at 1 μM in data set [3] is under 30 min; in data set [4], under 5 min.
`Cn1cncc1[C@@]1(N)c2ccc(Cl)c(c2)OCCc2cccc(c2)-c2cc(=O)n(C3CC3)c3ccc1cc23` [(S)-30, (S)-3-amino-4^4-chloro-2^1-cyclopropyl-3-(1-methyl-1H-imidazol-5-yl)-2^1,2^2-dihydro-5-oxa-2(4,6)-quinolina-1,4(1,3)-dibenzenacycloheptaphan-2^2-one]: the IC50 in data set [1] is at most 10 nM; in the data set on T24/83 cells it was 50 to 500 nM. The half-life at 1 μM in data set [3] is under 30 min; in data set [4], under 5 min.
On the same counts, the results for `Cn1cnnc1[C@@]1(N)c2ccc(Cl)c(c2)OCCc2cccc(c2)-c2cc(=O)n(C3CC3)c3ccc1cc23` [(S)-35, (S)-3-amino-4^4-chloro-2^1-cyclopropyl-3-(4-methyl-4H-1,2,4-triazol-3-yl)-2^1,2^2-dihydro-5-oxa-2(4,6)-quinolina-1,4(1,3)-dibenzenacycloheptaphan-2^2-one] are at most 10 nM, 50 to 500 nM, under 30 min and under 5 min.
The matching figures for `Cn1cncc1[C@@]1(O)c2ccc(C#N)c(c2)OCCc2cccc(c2)-c2cc(=O)n(C)c3ccc1cc23` [(S)-36, (S)-3-hydroxy-2^1-methyl-3-(1-methyl-1H-imidazol-5-yl)-2^2-oxo-2^1,2^2-dihydro-5-oxa-2(4,6)-quinolina-1,4(1,3)-dibenzenacycloheptaphane-4^4-carbonitrile]: at most 10 nM, at most 50 nM, under 30 min and 5 to 15 min.
In the case of `Cn1cnnc1[C@@]1(N)c2ccc(C#N)c(c2)OCCc2cccc(c2)-c2cc(=O)n(C)c3ccc1cc23` [(S)-39, (S)-3-amino-2^1-methyl-3-(4-methyl-4H-1,2,4-triazol-3-yl)-2^2-oxo-2^1,2^2-dihydro-5-oxa-2(4,6)-quinolina-1,4(1,3)-dibenzenacycloheptaphane-4^4-carbonitrile], the IC50 in data set [1] was at most 10 nM; in the data set on T24/83 cells, at most 50 nM. The half-life at 1 μM in data set [3] is over 100 min; in data set [4], over 15 min.
With `Cn1cncc1[C@@]1(N)c2ccc(Cl)c(c2)COc2cccc(c2)-c2cc(C#N)nc3ccc1cc23` [(S)-48, (S)-3-amino-4^4-chloro-3-(1-methyl-1H-imidazol-5-yl)-6-oxa-2(4,6)-quinolina-1,4(1,3)-dibenzenacyclohexaphane-2^2-carbonitrile], the IC50 in data set [1] was at most 10 nM; in the data set on T24/83 cells it was at most 50 nM; in data set [2], over 1000 nM.
As to `[2H]C([2H])([2H])n1c(=O)cc2c3cc(ccc31)[C@@](O)(c1cncn1C)c1ccc(C#N)c(c1)COc1cccc-2c1` [(S)-55, (S)-3-hydroxy-2^1-(methyl-d3)-3-(1-methyl-1H-imidazol-5-yl)-2^2-oxo-2^1,2^2-dihydro-6-oxa-2(4,6)-quinolina-1,4(1,3)-dibenzenacyclohexaphane-4^4-carbonitrile], the IC50 is at most 10 nM in data set [1], at most 50 nM in the data set with T24/83 cells and over 1000 nM in data set [2].
Take `Cn1cncc1C1(O)c2ccc(Cl)c(c2)COc2cccc(c2)-c2cc(=O)n(C)c3ccc1cc23` (stereo not shown) [Compound 45, 4^4-chloro-3-hydroxy-2^1-methyl-3-(1-methyl-1H-imidazol-5-yl)-2^1,2^2-dihydro-6-oxa-2(4,6)-quinolina-1,4(1,3)-dibenzenacyclohexaphan-2^2-one]: the IC50 in data set [1] was at most 10 nM; in the data set with T24/83 cells it was at most 50 nM. The half-life at 1 μM in data set [3] is over 100 min; in data set [4], over 15 min.
On the same counts, the results for `Cn1cncc1C1(O)c2ccc(Cl)c(c2)CCOc2cccc(c2)-c2cc(=O)n(C)c3ccc1cc23` (stereo not shown) [Compound 65, 4^4-chloro-3-hydroxy-2^1-methyl-3-(1-methyl-1H-imidazol-5-yl)-2^1,2^2-dihydro-7-oxa-2(4,6)-quinolina-1,4(1,3)-dibenzenacycloheptaphan-2^2-one] are at most 10 nM, 50 to 500 nM, under 30 min and 5 to 15 min.
